Columns and labels:
[1] = test system: W134X NanoLuc RT/NMD reporter; experiment: W134X NanoLuc readthrough/NMD reporter screen in Fischer rat thyroid cells; format: cell-based; settings: NanoLuc activity; for +G418 Fold-Increase (Rel. to G418): drug conc. 60 μM combined with G418 100 μg/ml
Method: Equal numbers of the W134X NanoLuc RT/NMD monoclonal reporter cells were seeded into 96-well plates and cultured without zeocin for 24 hours. The cells were then treated with screening compounds for 24-hours. Dimethylsulfoxide served as the vehicle in which compounds were administered at a final concentration of 60 μM or 30 μg/ml. After treatment, the cells were washed once with phosphate-buffered saline, followed by incubation with passive lysis buffer (PLB) (Promega, E1941) for 20 minutes at room temperature. NanLuc activity in cell lysates was assayed with the Nano-Glo Luciferase Assay System (Promega, N1120) using the GloMax® Discover System (Promega). NanoLuc activity was normalized to the lysate protein concentration, which was determined by the Bio-Rad Protein Assay Reagent (Bio-Rad, 500-006).
In order to identify new compounds with the ability to suppress PTCs by inducing readthrough, inhibiting NMD, or both, a NanoLuc reporter that harbors a point mutation at codon W134 was utilized, resulting in the introduction of a UGA termination codon (W134X) into the NanoLuc cDNA. This NanoLuc construct was fused in-frame to a human β-globin construct containing intronic regions, which allows the W134X PTC to elicit exon-junction-complex dependent NMD (FIG. 1A). This NanoLuc readthrough/NMD reporter was stably expressed in Fischer rat thyroid cells, which were used to screen a 10,000 low molecular weight compound library for compounds that increase NanoLuc activity in treated cells relative to a vehicle control.

[2] = test system: Idua mRNA in wildtype MEFs; experiment: Steady state Idua mRNA by qPCR in wildtype MEFs; format: cell-based, mouse; settings: 48 hours, compared to the vehicle alone control
Method: Total RNA was isolated from MEFs using the Ambion RiboPure kit and DNase-treated using the Turbo DNA-Free kit. Polyadenylated RNA was reverse transcribed into cDNA in a 50 μl reaction containing […] of total RNA; 0.5 mg/ml oligo dT; 1.2 mM dNTPs; 40 U RNasin (Promega); […] of 5×AMV RT buffer and 40 U AMV reverse transcriptase (Promega), RT reactions were incubated at 42° C. for 1.5 hours, and then heat inactivated at 65° C. for 15 minutes. The cDNA was ethanol precipitated and subjected to qPCR in a 25 μl reaction containing 12.5 μl iQ SYBR Green Supermix (Bio-Rad); 0.2 mM of each forward and reverse primer; and […] of cDNA. […]
Melt curve analysis was initially performed with each primer set to verify that only one gene product was generated from the PCR reactions. […] The average quantification cycle (Cq) was determined for each mRNA, and mRNA quantification was performed using the Livak (DDCq) method (Livak K J, et al. (2001) Methods. 25(4):402-8), where Gapdh and Rpl13a served as normalization controls.

Idua-KO MEFs [3] = experiment: α-L-iduronidase activity in Idua-KO MEFs; format: cell-based, mouse; settings: 48 hours (FIG. 7A)
Method: MEFs were seeded into 6-well culture dishes at a density of 1.5×10^5 cells per well. MEFs were grown to 50% confluency and then treated with screening agents for 48 hours. MEFs were subsequently washed with PBS and lysed in Mammalian Protein Extraction Reagent (Pierce) containing a protease inhibitor cocktail (Roche). The total protein concentration was determined using the Bio-Rad Protein Assay, Approximately 75 micrograms of total lysate protein was incubated in a 70-microliter reaction containing 0.12 mM 4-methyl-umbelliferyl-α-L-iduronide (Gold Biotech) and 0.42 mg/ml of D-saccharic acid 1,4-lactone monohydrate (a β-glucuronidase inhibitor) (Sigma 50375) in 130 mM sodium formate buffer, pH 3.5. The reaction was incubated for 72 hours at 37° C. and then quenched with 300 μl of glycine buffer, pH 10.8. 200 μl of each sample was transferred to a 96-well plate (Corning 3631) and fluorescence was measured at an excitation=365 nm and an emission=450 nm using the GloMax® Discover System (Promega). Free acid 4-methylumbelliferone (FMU) (Sigma M1381) in glycine buffer was used to generate a standard curve.

Idua-KO MEFs [4] = experiment: GAG levels in Idua-KO MEFs; format: cell-based, mouse; settings: 48 hours (FIG. 7B)
Method: MEFs were grown to 50% confluency and then treated with screening agents for 48 hours.

[5] = test system: cystic fibrosis patients who carry a PTC; settings: Kerem et al. 2014; cited from earlier work
[6] = Hirawat et al. 2004, 2007; cited from earlier work

| Compound | +G418 Fold-Increase (Rel. to G418) [1] [fold] | Drug Alone Fold-Increase (Rel. to Basal) ([1]; drug conc. 60 μM, 24 h) [fold] | other results |
| --- | --- | --- | --- |
| COc1cc2nc(N3CCN(C(=O)C4COc5ccccc5O4)CC3)nc(N)c2cc1OC (stereo not shown) [Doxazocin] | 10.3 | 4.1 | change of Idua mRNA levels [2]: slightly increased Idua mRNA levels |
| COc1cc2c(cc1OC)CN(CCc1ccc(NC(=O)c3cccc4c(=O)c5cccc(OC)c5[nH]c34)cc1)CC2 [Elacridar] | 6.0 | 4.8 | – |
| CN[C@@H]1[C@@H](O)[C@@H](O[C@@H]2[C@@H](O)[C@H](O[C@H]3O[C@H]([C@@H](C)O)[C@@H](O)[C@H](O)[C@H]3N)[C@@H](N)C[C@H]2N)OC[C@]1(C)O [G418 alone] | – | – | Drug Alone Fold-Increase (Rel. to Basal) ([1]; readthrough control at 100 μg/ml): 24 fold |
| CCCn1c(=O)c2[nH]c(-c3cnn(Cc4cccc(C(F)(F)F)c4)c3)nc2n(CC)c1=O [GS-6201] | 13.6 | 10.3 | – |
| Cc1ccc(NC(=O)c2ccc(CN3CCN(C)CC3)cc2)cc1Nc1nccc(-c2cccnc2)n1 [Imantinib] | 19.1 | 4.6 | – |
| C=CCN1CC[C@]23c4c5ccc(O)c4O[C@H]2/C(=N/N=C2\CC[C@@]4(O)[C@H]6Cc7ccc(O)c8c7[C@@]4(CCN6CC=C)[C@H]2O8)CC[C@@]3(O)[C@H]1C5 [Naloxonazine] | 5.8 | 2.7 | – |
| CN1CC(=O)N2[C@H](c3ccc4c(c3)OCO4)c3[nH]c4ccccc4c3C[C@@H]2C1=O [Tadalafil] | 6.3 | 2.3 | – |
| COc1cc2c(N3CCN(C(=O)Nc4ccc(OC(C)C)cc4)CC3)ncnc2cc1OCCCN1CCCCC1 [Tandutinib] | 7.8 | 3.8 | – |
| Nc1nc(N)c2nc(-c3ccccc3)c(N)nc2n1 [Triamterene, 2,4,7-triamino-6-phenylpteridine] | 15.7 | 13.4 | change of Idua mRNA levels [2]: did not significantly change Idua mRNA levels; α-L-iduronidase activity (Idua-KO MEFs [3]): slight increases in α-L-iduronidase; reduction in GAGs (Idua-KO MEFs [4]): little to no reduction in GAGs |
| O=C(O)c1cccc(-c2noc(-c3ccccc3F)n2)c1 [ataluren] | – | – | lung function [5]: did not significantly improve lung function; toxicity / safety for clinical use [6]: non-toxic and safe for clinical use |
| Verteporfin | 7.1 | 4.3 | – |

Reference: patent US20210244738A1, “COMPOSITIONS AND METHODS FOR SUPPRESSING NONSENSE MUTATIONS” (The UAB Research Foundation, priority 2018, published 2021)
